From patent publication US11712438B2, “Phenyl derivatives as PGE2 receptor modulators” (IDORSIA PHARMACEUTICALS LTD, priority 2017, dated 2023)

What was measured:
Experiment in all cases: cell-based
EP4 = EP4 (Homo sapiens, UniProt P35408);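 note: inhibition of PGE2-evoked (6 nM) cAMP accumulation in BT549 breast cancer cells endogenously expressing EP4, cAMP read by HTRF competitive immunoassay after 30 min at room temperature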
PTGER2 (EP2) = PTGER2 (EP2) (Homo sapiens, UniProt P43116)
PTRGER4 (EP4) = PTRGER4 (EP4) (Homo sapiens, UniProt P35408);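 note: assay plate preincubated 15 min at 37 °C, after which PGE2 was added at 20 nM final and incubation continued 120 min at 37 °C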
EP2 = EP2 (Homo sapiens, UniProt P43116);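 note: SF295 glioblastoma cells with endogenous EP2 only, PGE2-stimulated cAMP accumulation read by HTRF competitive immunoassay, 45 min pre-incubation then 30 min at room temperature, IBMX in buffer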
Sequence of EP2 (P43116 whole entry): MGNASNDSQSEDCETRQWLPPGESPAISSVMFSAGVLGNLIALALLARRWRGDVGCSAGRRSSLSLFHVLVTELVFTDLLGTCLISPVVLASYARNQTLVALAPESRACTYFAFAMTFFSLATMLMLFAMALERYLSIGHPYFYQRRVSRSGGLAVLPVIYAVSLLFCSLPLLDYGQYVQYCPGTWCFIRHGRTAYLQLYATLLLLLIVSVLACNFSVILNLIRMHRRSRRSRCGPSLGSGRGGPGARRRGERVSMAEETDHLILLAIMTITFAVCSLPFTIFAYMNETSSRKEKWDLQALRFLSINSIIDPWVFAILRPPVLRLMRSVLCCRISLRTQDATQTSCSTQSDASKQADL

Sequence of PTRGER4 (EP4) (P35408 whole entry): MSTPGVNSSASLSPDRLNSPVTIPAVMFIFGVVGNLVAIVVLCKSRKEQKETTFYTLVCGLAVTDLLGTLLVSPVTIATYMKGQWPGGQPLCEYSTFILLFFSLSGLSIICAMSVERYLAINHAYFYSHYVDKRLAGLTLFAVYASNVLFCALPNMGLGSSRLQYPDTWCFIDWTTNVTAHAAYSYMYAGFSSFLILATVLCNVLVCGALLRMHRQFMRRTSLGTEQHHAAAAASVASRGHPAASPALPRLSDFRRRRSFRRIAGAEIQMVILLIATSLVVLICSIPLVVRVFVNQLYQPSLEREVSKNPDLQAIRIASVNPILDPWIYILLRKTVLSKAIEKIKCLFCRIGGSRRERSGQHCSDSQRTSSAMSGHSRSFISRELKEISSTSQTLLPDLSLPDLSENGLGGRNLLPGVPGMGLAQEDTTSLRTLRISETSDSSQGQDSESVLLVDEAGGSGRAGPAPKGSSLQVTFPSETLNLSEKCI
Sequence of EP4 (P35408 whole entry): as above
Sequence of PTGER2 (EP2) (P43116 whole entry): as the sequence (P43116 whole entry) above

SMILES	IC50 (EP4)	IC50 (PTGER2 (EP2))	IC50 (PTRGER4 (EP4))	IC50 (EP2)
CCOc1cc(Br)ccc1CCNc1cc(-c2ccc(C(=O)O)c(OCC)c2)ncn1 [Example 51, 4-{6-[2-(4-Bromo-2-ethoxy-phenyl)-ethylamino]-pyrimidin-4-yl}-2-ethoxy-benzoic acid]	684 nM	39 nM	–	72 nM
CCOc1cc(-c2cc(NCCc3ccccc3Br)ncn2)sc1C(=O)O [Example 70, 5-{6-[2-(2-Bromo-phenyl)-ethylamino]-pyrimidin-4-yl}-3-ethoxy-thiophene-2-carboxylic acid]	554 nM	260 nM	–	139 nM
CCOc1cc(-c2cc(NCCc3ccccc3Cl)ncn2)sc1C(=O)O [Example 78, 5-{6-[2-(2-Chloro-phenyl)-ethylamino]-pyrimidin-4-yl}-3-ethoxy-thiophene-2-carboxylic acid]	458 nM	176 nM	–	149 nM
NC(=O)Cc1ccc(-c2cc(NCCc3ccc(Br)cc3)ncn2)s1 [Example 158, 2-(5-{6-[2-(4-Bromo-phenyl)-ethylamino]-pyrimidin-4-yl}-thiophen-2-yl)-acetamide]	913 nM	–	2270 nM	643 nM
CCOc1cc(-c2cc(NCCc3ccc(Br)cc3)ncn2)sc1CC(N)=O [Example 287, 2-(5-{6-[2-(4-Bromo-phenyl)-ethylamino]-pyrimidin-4-yl}-3-ethoxy-thiophen-2-yl)-acetamide]	1210 nM	–	315 nM	868 nM
Brc1ccc(CCNc2cc(-c3ccc(Cc4nnn[nH]4)s3)ncn2)cc1 [Example 288, [2-(4-Bromo-phenyl)-ethyl]-{6-[5-(1H-tetrazol-5-ylmethyl)-thiophen-2-yl]-pyrimidin-4-yl}-amine]	775 nM	–	1190 nM	739 nM

Stronger by IC50 (EP4), values ahead:

IC50 (EP4)	IC50 (PTGER2 (EP2))	IC50 (PTRGER4 (EP4))	IC50 (EP2)	SMILES
433 nM	–	126 nM	1000 nM	CCOc1cc(-c2cc(NCCc3ccc(Br)cc3)ncn2)sc1CCc1noc(=O)[nH]1 [Example 144, 3-[2-(5-{6-[2-(4-Bromo-phenyl)-ethylamino]-pyrimidin-4-yl}-3-ethoxy-thiophen-2-yl)-ethyl]-[1,2,4]oxadiazol-5(4H)-one]
256 nM	–	134 nM	318 nM	CCOc1cc(-c2cc(NCCc3cc(Cl)ccc3C#N)ncn2)sc1-c1noc(=O)[nH]1 [Example 160, 4-Chloro-2-(2-{6-[4-ethoxy-5-(5-oxo-4,5-dihydro-[1,2,4]oxadiazol-3-yl)-thiophen-2-yl]-pyrimidin-4-ylamino}-ethyl)-benzonitrile]
168 nM	–	8 nM	381 nM	CCOc1cc(-c2cc(NCCc3ccc(Br)cc3)ncn2)sc1-c1noc(NCCO)n1 [Example 141, 2-[3-(5-{6-[2-(4-Bromo-phenyl)-ethylamino]-pyrimidin-4-yl}-3-ethoxy-thiophen-2-yl)-[1,2,4]oxadiazol-5-ylamino]-ethanol]
112 nM	438 nM	550 nM	79 nM	COc1cc(SC)ccc1CCNc1cc(-c2ccc(C(=O)O)c(SC)c2)ncn1 [Example 2, 4-{6-[2-(2-Methoxy-4-methylsulfanyl-phenyl)-ethylamino]-pyrimidin-4-yl}-2-methylsulfanyl-benzoic acid]
65 nM	240 nM	402 nM	86 nM	Cc1ccc(CCNc2cc(-c3cc(F)c(C(=O)O)s3)ncn2)cc1 [Example 1, 3-Fluoro-5-[6-(2-p-tolyl-ethylamino)-pyrimidin-4-yl]thiophene-2-carboxylic acid]
40 nM	–	10 nM	713 nM	CCOc1cc(-c2cc(NCCc3ccc(N(C)C)cc3F)ncn2)sc1-c1noc(=O)[nH]1 [Example 161, 3-(5-{6-[2-(4-Dimethylamino-2-fluoro-phenyl)-ethylamino]-pyrimidin-4-yl}-3-ethoxy-thiophen-2-yl)[1,2,4]oxadiazol-5(4H)-one]
